Several values for one entry are separate records, joined by “and”; a condition that tells them apart may be missing. Identical values can stand only once. Like-named read-outs stand apart in the source and are kept apart here.
Assays:
[1] = test system: SARS-CoV-2 TKYTS14631/ο BA.5; assay: microbe, parasite or virus in culture; assay type: cell-based
[2] = test system: SARS-CoV-2 TKYX00012/ο BA.1; assay: microbe, parasite or virus in culture; assay type: cell-based
[3] = Pharmacokinetic study in PXB-mice (human liver-chimeric)

## CC(C)(C)[C@H](NC(=O)C(F)(F)F)C(=O)N1C[C@H]2[C@@H]([C@H]1C(=O)N[C@H](C#N)C[C@@H]1CCNC1=O)C2(C)C [Nirmatrelvir, reference compound]
[1]; Severe acute respiratory syndrome coronavirus 2, Vero C1008, read-out: EC50 against TKYTS14631/ο BA.5
  EC50: 1.08 ± 0.15 µM
[1]; Severe acute respiratory syndrome coronavirus 2, Vero C1008, read-out: EC50 ο BA5, Average
  EC50: 1.08 µM
[1]; Severe acute respiratory syndrome coronavirus 2, Vero C1008, read-out: EC50 ο BA5, individual assays
  EC50: 0.999 µM
[1]; read-out: EC50 ο BA5, individual assays
  EC50: 0.988 µM and 1.25 µM
[2]; Severe acute respiratory syndrome coronavirus 2, Vero C1008, read-out: EC50 against KTKYX00012/ο BA.1
  EC50: 1.05 ± 0.061 µM
[2]; Severe acute respiratory syndrome coronavirus 2, Vero C1008, read-out: EC50 ο BA1, Average
  EC50: 1.05 µM
[2]; Severe acute respiratory syndrome coronavirus 2, Vero C1008, read-out: EC50 ο BA1, individual assays
  EC50: 1.1 µM
[2]; read-out: EC50 ο BA1, individual assays
  EC50: 1.06 µM and 0.98 µM
[3]; PXB (human liver-chimeric), mouse, plasma, po, 10 mg/kg, plasma concentration, 10 min, individual animals (3 per time point), LC/MS/MS
  concentration at 10 min: 1600 ng/mL
[3]; PXB (human liver-chimeric), mouse, plasma, po, 10 mg/kg, plasma concentration, 240 min, individual animals (3 per time point), LC/MS/MS
  concentration at 240 min: 47.2 ng/mL
[3]; PXB (human liver-chimeric), mouse, plasma, po, 10 mg/kg, plasma concentration, 1440 min, individual animals (3 per time point), LC/MS/MS
  concentration at 1440 min: 0.63 ng/mL
[3]; PXB-mice, i.v. 10 mg/kg, 10 min, individual mice, 10 mg/kg
  Plasma concentration: 5525.9 ng/mL and 4420.7 ng/mL
[3]; PXB-mice, i.v. 10 mg/kg, 0.17 hr, individual mice, 10 mg/kg
  Plasma concentration: 5530 ng/mL and 4420 ng/mL
[3]; PXB-mice, i.v. 10 mg/kg, 60 min, individual mice, 10 mg/kg
  Plasma concentration: 305.4 ng/mL and 496.6 ng/mL
[3]; PXB-mice, i.v. 10 mg/kg, 1 hr, individual mice, 10 mg/kg
  Plasma concentration: 310 ng/mL and 500 ng/mL
[3]; PXB-mice, i.v. 10 mg/kg, 240 min, individual mice, 10 mg/kg
  Plasma concentration: 10 ng/mL and 10.6 ng/mL and 46.3 ng/mL
[3]; PXB-mice, i.v. 10 mg/kg, 4 hr, individual mice, 10 mg/kg
  Plasma concentration: 0.01 µg/ml (2×) and 0.05 µg/ml
[3]; PXB-mice, i.v. 10 mg/kg, 480 min, individual mice, 10 mg/kg
  Plasma concentration: 1.3 ng/mL and 2.2 ng/mL
[3]; PXB-mice, i.v. 10 mg/kg, 8 hr, individual mice
  Plasma concentration: 0 ng/mL
[3]; PXB-mice, i.v. 10 mg/kg, 1440 min, individual mice, 10 mg/kg
  Plasma concentration: 0.2 ng/ml (2×) and 0.9 ng/ml
[3]; PXB-mice, i.v. 10 mg/kg, 24 hr, individual mice
  Plasma concentration: 0 ng/mL
[3]; PXB-mice, p.o. 10 mg/kg, 10 min, individual mice, 10 mg/kg
  Plasma concentration: 889.5 ng/mL and 980.6 ng/mL
[3]; PXB-mice, p.o. 10 mg/kg, 0.17 hr, individual mice, 10 mg/kg
  Plasma concentration: 890 ng/mL and 980 ng/mL
[3]; PXB-mice, p.o. 10 mg/kg, 60 min, individual mice, 10 mg/kg
  Plasma concentration: 653.1 ng/mL and 318.8 ng/mL and 407 ng/mL
[3]; PXB-mice, p.o. 10 mg/kg, 1 hr, individual mice, 10 mg/kg
  Plasma concentration: 650 ng/mL and 320 ng/mL and 410 ng/mL
[3]; PXB-mice, p.o. 10 mg/kg, 240 min, individual mice, 10 mg/kg
  Plasma concentration: 34.6 ng/mL and 30.7 ng/mL
[3]; PXB-mice, p.o. 10 mg/kg, 4 hr, individual mice, 10 mg/kg
  Plasma concentration: 30 ng/mL
[3]; PXB-mice, p.o. 10 mg/kg, 480 min, individual mice, 10 mg/kg
  Plasma concentration: 4.4 ng/mL and 7.4 ng/mL and 18.7 ng/mL
[3]; PXB-mice, p.o. 10 mg/kg, 8 hr, individual mice, 10 mg/kg
  Plasma concentration: 0 ng/mL and 10 ng/mL and 20 ng/mL
[3]; PXB-mice, p.o. 10 mg/kg, 1440 min, individual mice, 10 mg/kg
  Plasma concentration: 0.6 ng/mL and 0.5 ng/mL
[3]; PXB-mice, p.o. 10 mg/kg, 24 hr, individual mice
  Plasma concentration: 0 ng/mL
[3]; male PXB-mouse 10 mg/kg i.v. and p.o., dose-normalized AUC ratio
  Oral F: 56¶ %
[3]; male, PXB (human liver-chimeric), mouse, plasma, iv, 10 mg/kg, Plasma concentration, PXB-mice, i.v. 10 mg/kg, 10 min, individual mice
  concentration at 10 min: 4250 ng/mL
[3]; male, PXB (human liver-chimeric), mouse, plasma, iv, 10 mg/kg, Plasma concentration, PXB-mice, i.v. 10 mg/kg, 0.17 hr, individual mice
  concentration at 0.17 hr: 4250 ng/mL
[3]; male, PXB (human liver-chimeric), mouse, plasma, iv, 10 mg/kg, Plasma concentration, PXB-mice, i.v. 10 mg/kg, 60 min, individual mice
  concentration at 60 min: 344 ng/mL
[3]; male, PXB (human liver-chimeric), mouse, plasma, iv, 10 mg/kg, Plasma concentration, PXB-mice, i.v. 10 mg/kg, 1 hr, individual mice
  concentration at 1 hr: 340 ng/mL
[3]; male, PXB (human liver-chimeric), mouse, plasma, iv, 10 mg/kg, Plasma concentration, PXB-mice, i.v. 10 mg/kg, 480 min, individual mice
  concentration at 480 min: 2.2 ng/mL
[3]; male, PXB (human liver-chimeric), mouse, plasma, iv, 10 mg/kg, Plasma concentration, PXB-mice, i.v. 10 mg/kg, 8 hr, individual mice
  concentration at 8 hr: 0 ng/mL
[3]; male, PXB (human liver-chimeric), mouse, plasma, iv, 10 mg/kg, Plasma concentration, PXB-mice, i.v. 10 mg/kg, 24 hr, individual mice
  concentration at 24 hr: 0 ng/mL
[3]; male, PXB (human liver-chimeric), mouse, plasma, po, 10 mg/kg
  Cmax: 1160 ng/mL
[3]; male, PXB (human liver-chimeric), mouse, plasma, po, 10 mg/kg, Plasma concentration, PXB-mice, p.o. 10 mg/kg, 10 min, individual mice
  concentration at 10 min: 1600 ng/mL
[3]; male, PXB (human liver-chimeric), mouse, plasma, po, 10 mg/kg, Plasma concentration, PXB-mice, p.o. 10 mg/kg, 0.17 hr, individual mice
  concentration at 0.17 hr: 1600 ng/mL
[3]; male, PXB (human liver-chimeric), mouse, plasma, po, 10 mg/kg, Plasma concentration, PXB-mice, p.o. 10 mg/kg, 240 min, individual mice
  concentration at 240 min: 47.2 ng/mL
[3]; male, PXB (human liver-chimeric), mouse, plasma, po, 10 mg/kg, Plasma concentration, PXB-mice, p.o. 10 mg/kg, 4 hr, individual mice
  concentration at 4 hr: 50 ng/mL
[3]; male, PXB (human liver-chimeric), mouse, plasma, po, 10 mg/kg, Plasma concentration, PXB-mice, p.o. 10 mg/kg, 1440 min, individual mice
  concentration at 1440 min: 0.6 ng/mL
[3]; male, PXB (human liver-chimeric), mouse, plasma, po, 10 mg/kg, Plasma concentration, PXB-mice, p.o. 10 mg/kg, 24 hr, individual mice
  concentration at 24 hr: 0 ng/mL
[3]; p.o., 10 min, individual animals (3 per time point), LC/MS/MS
  Plasma concentration: 889.46 ng/mL and 980.64 ng/mL
[3]; p.o., 60 min, individual animals (3 per time point), LC/MS/MS
  Plasma concentration: 653.07 ng/mL and 318.79 ng/mL and 406.97 ng/mL

— PMC9958325 (Nature Communications, 2023)
